Reference: ChEMBL document CHEMBL1201862, “PubChem BioAssay data set” (2004)
Activity calls are given as the source filed them.

How the values were obtained:
[1] = target: T1, fMet-Leu-Phe receptor (Homo sapiens, UniProt P21462); assay: FPR ligands, dose response (AID 519); type: functional
T1 sequence (P21462 whole entry): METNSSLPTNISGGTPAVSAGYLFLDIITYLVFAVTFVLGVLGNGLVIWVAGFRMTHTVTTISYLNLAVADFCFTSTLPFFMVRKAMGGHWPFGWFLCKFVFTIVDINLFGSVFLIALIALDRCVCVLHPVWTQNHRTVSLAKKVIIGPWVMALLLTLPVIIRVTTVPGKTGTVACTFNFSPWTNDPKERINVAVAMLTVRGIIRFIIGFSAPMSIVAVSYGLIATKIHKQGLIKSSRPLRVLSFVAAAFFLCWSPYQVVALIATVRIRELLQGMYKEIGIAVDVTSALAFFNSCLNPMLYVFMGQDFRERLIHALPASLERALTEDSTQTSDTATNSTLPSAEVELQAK

[2] = target: T2, DNA repair protein RAD52 homolog (Homo sapiens, UniProt P43351); type: functional, biochemical
T2 sequence (P43351 whole entry): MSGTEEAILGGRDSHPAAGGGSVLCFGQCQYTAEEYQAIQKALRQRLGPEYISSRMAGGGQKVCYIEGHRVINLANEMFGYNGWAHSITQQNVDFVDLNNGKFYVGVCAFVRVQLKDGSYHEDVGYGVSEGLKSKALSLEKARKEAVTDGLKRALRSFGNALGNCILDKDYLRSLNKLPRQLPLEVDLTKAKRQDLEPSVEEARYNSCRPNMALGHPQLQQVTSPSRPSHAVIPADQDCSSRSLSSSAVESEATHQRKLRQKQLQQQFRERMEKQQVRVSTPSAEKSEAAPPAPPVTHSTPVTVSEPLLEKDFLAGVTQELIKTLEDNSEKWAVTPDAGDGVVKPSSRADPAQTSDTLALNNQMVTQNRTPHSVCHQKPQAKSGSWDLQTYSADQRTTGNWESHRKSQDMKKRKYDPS

[3] = target: Disintegrin and metalloproteinase domain-containing protein 17 (Homo sapiens, UniProt P78536); assay: exosite inhibitors of ADAM17, dose response, biochemical (AID 743260)
[4] = ADAM10 protease inhibitors, dose response, selectivity assay for ADAM17 exosite inhibitor project, biochemical, FRET peptide substrate, recombinant human ADAM10 (AID 743259);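 further: ADAM10 enzyme cleaving a FRET peptide substrate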
[5] = cells; type: functional, cell-based
[6] = target: T3, Trace amine-associated receptor 1 (Homo sapiens, UniProt Q96RJ0); assay: Fluorescence-based cell-based high throughput dose response assay to identify agonists of the human trace amine associated receptor 1 (TAAR1).; type: functional
T3 sequence (Q96RJ0 whole entry): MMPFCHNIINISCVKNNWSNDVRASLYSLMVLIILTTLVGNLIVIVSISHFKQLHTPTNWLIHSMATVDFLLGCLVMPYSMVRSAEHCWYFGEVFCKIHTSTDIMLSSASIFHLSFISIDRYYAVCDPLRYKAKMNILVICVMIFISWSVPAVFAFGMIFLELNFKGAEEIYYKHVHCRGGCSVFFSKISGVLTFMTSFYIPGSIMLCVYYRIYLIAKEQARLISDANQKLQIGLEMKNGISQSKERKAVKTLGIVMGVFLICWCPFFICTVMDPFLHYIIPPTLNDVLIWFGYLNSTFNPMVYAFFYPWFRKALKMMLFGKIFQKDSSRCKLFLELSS

[7] = target: T3, Trace amine-associated receptor 1; assay: Counterscreen for agonists of the human trace amine associated receptor 1 (hTAAR1): Fluorescence-based cell-based high throughput dose response assay to identify hTAAR1 agonist that also desensitize TAAR1 receptor response.; type: functional
[8] = cells; type: functional, cell-based; remark: listed apart in the source
[9] = target: NAD-dependent protein deacylase sirtuin-5, mitochondrial (Homo sapiens, UniProt Q9NXA8); assay: SIRT5 desuccinylase inhibitors, dose response, biochemical, fluorescence imaging, cherry-pick, set 5 (AID 720591);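 further: desuccinylation of succinyl peptide AMC substrate read as fluorescence after trypsin release; potency of inhibitors that lower fluorescence and may act on trypsin instead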
[10] = Luminescence Cell-Based Dose Retest to Confirm Inhibitors of Cancer Stem Cells. [Related pubchem assays (depositor defined):AID2717, AID2721]; type: functional; settings: Homo sapiens
[11] = target: Major prion protein (Homo sapiens, UniProt P04156); type: functional, cell-based
[12] = cells

With Cc1ccsc1C1C2=C(O)CC(C)(C)CC2=Nc2ncnn21 (stereo not drawn) the Ki [1] was 12.5 µM (active).
For CN1Cc2c(N3CCOCC3)nc3sc(C(=O)c4ccccc4)c(N)c3c2CC1(C)C, the AC50 [2] was 32.1 µM (active).
In the case of Nc1[nH]c(C(=O)c2ccc(Br)cc2)c(-c2ccc(Cl)cc2[N+](=O)[O-])c1C(=O)NCCc1c[nH]c2ccccc12, the IC50 [3] is reported as > 69.5 µM (inactive) and the IC50 [4] is reported as 9.24 µM (active).
With c1ccc(C2CNCCc3ccccc32)cc1 (stereo not drawn) the IC50 [5] was > 29.9 µM (inactive), the EC50 [6] was 1.41 µM (active) and the IC50 [7] was 3.36 µM (active). The EC50 [8] was > 29.9 µM (inactive).
For OC(CNCc1ccccc1)COc1ccccc1 (stereo not drawn), the AC50 [9] was > 30 µM (inactive).
In the case of N=C(N/N=C\c1ccc(F)cc1)N/N=C\c1ccc(F)cc1, the AC50 [10] is reported as 5.38 µM (active), the IC50 [5] is reported as > 29.9 µM (inactive) and the EC50 [6] is reported as 1.75 µM (active). For the same compound, the IC50 [7] was 4.9 µM (active) and the EC50 [8] was 26.1 µM (inactive).
In the case of CN(C)CCCN=c1cc(-c2ccccc2)oc2ccc(Cl)cc12, the AC50 [2] is reported as 4.38 µM (active).
In the case of Cc1ccc(Cc2c(-c3ccco3)nc3ccc(Br)cn23)cc1, the IC50 [11] is reported as 8.5 µM (active) and the IC50 [12] is reported as 56.8 µM (inactive).
For CCc1ccccc1NC(=O)CNC(=O)CNC(=O)c1cccs1, the AC50 [9] was 25.1 µM (active).
